This test in a line: Women's Health Study (WHS): randomized trial of low dose aspirin vs placebo, incident cardiovascular events stratified by rs3798220 genotype or Lp(a) level. In kind it is in vivo, human. To be noted: for relative risk reduction of major vascular events with aspirin: aspirin 100 mg orally on alternate days vs placebo, 10-year follow-up. From the text: The genotype of this polymorphism was therefore determined among 26,274 initially healthy women from the Women's Health Study (WHS) who had been randomly allocated to low dose aspirin or placebo and then followed over a 10-year period for incident cardiovascular events (31). This setting afforded the opportunity for prospective assessment not only of rs3798220 association with Lp(a) levels and vascular risk, but also of an interaction between aspirin and genetic effects on risk. Although most of the study participants were Caucasian, there were sufficient numbers of non-Caucasian participants to address population-specific influences on associations between rs3798220 and Lp(a) levels, as have been found in previous comparisons of other apolipoprotein(a) variants among populations with different biogeographic ancestry (32-36).
Study Populations: The primary study population derived from the Women's Health Study (WHS), a randomized trial of aspirin (100 mg orally on alternate days) and placebo in the primary prevention of cardiovascular disease conducted among initially healthy women aged at least 45 at enrollment who were followed over a 10 year period (1, 2). At enrollment, participants provided baseline clinical and demographic information. 28,345 WHS participants provided blood for plasma and genetic analysis. Among these samples, baseline Lp(a) levels were measured with a turbidimetric assay that is not affected by the number of Kr IV type-2 repeats on the Hitachi 917 analyzer (Roche Diagnostics, Indianapolis, Ind.) (3). Baseline measurement of other lipid fractions, inflammation biomarkers, and other plasma components has been described previously (4). Total incident cardiovascular events adjudicated during the follow-up period included those typically associated with plaque rupture and vessel occlusion such as myocardial infarction (MI), ischemic stroke, and cardiovascular death, as well as those typically associated with progression of underlying atherosclerotic disease defined as revascularization by percutaneous transluminal coronary angioplasty (PTCA) or coronary artery bypass graft (CABG). Major incident cardiovascular events were defined as myocardial infarction, ischemic stroke, or cardiovascular death. In addition, the association between rs3798220 and plasma Lp(a) levels was evaluated in an independent group of 1058 Caucasian men who had participated in the Physicians Health Study (PHS) (5). Among these PHS participants, Lp(a) levels were determined with a standard clinical ELISA-based method (6).
Genotyping: Genotypes for rs3798220 in the WHS participants were determined by an oligonucleotide ligation procedure that combined PCR amplification of target sequences from 3 ng of genomic DNA with subsequent allele-specific oligonucleotide ligation (7). The ligation products of the two alleles were then separated by hybridization to product specific oligonucleotides, each coupled to spectrally distinct Luminex®100™ xMAP microspheres (Luminex, Austin, Tex.). The captured products were fluorescently labeled with streptavidin R-phycoerythrin (Prozyme, San Leandro, Calif.), sorted on the basis of microsphere spectrum, and detected by a Luminex®100™ instrument (8). Genotypes at rs3798220 in the PHS were determined with a fluorescence-based, allele specific, real-time DNA amplification method as described (ABI, Foster City) (9). For the WHS and PHS populations respectively, the fractions of samples with successful genotype determination were 96.3% and 97.8%. Of the 27,289 women with DNA samples for genotyping, full ascertainment for rs3798220 genotype, Lp(a) levels, age, and occurrence of incident cardiovascular events were available for 25,436. Of these, 24,320 were Caucasian, 468 were African-American, 282 were Asian American, 262 where Hispanic, 62 were Native American, and 42 had unknown ancestry.
Statistical methods: Deviations from Hardy-Weinberg equilibrium were evaluated using a log-likelihood ratio test. […]

For `CC(=O)Oc1ccccc1C(=O)O` [aspirin, acetylsalicylic acid], the “relative risk reduction of major vascular events with aspirin” value (Caucasian WHS women, non-carriers of rs3798220 minor allele (TT)) is listed as 9% and the “relative risk reduction of major vascular events with aspirin” value (Caucasian WHS women, rs3798220 heterozygotes) was 59%. Besides, the “relative risk reduction of coronary revascularization with aspirin” value (Caucasian WHS women, rs3798220 heterozygotes, aspirin 100 mg on alternate days vs placebo) was 36%. Further, the “effect of aspirin on relative risk of vascular events” value (Caucasian non-carriers of rs3798220 minor allele with Lp(a) above the 90th percentile (65.1 mg/dL)) is on record as “reduced the relative risk of vascular events” and the “effect of aspirin on relative risk of vascular events” value (Caucasian non-carriers of rs3798220 minor allele with Lp(a) below the 90th percentile) is “minimal effect”. Also, the “relative risk reduction for the revascularization endpoint with aspirin” value (Caucasians with Lp(a) levels above the 90th percentile (65.1 mg/dL), aspirin vs placebo) is 39%.

These data come from patent US11697850B2, “Polymorphism in the Apo(a) gene predict responsiveness to acetylsalicylic acid treatment” (Celera Corporation, priority 2007, dated 2023).
